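48-hour exposure; five concentrations; linearly interpolated endpoints. The concentration for 50% growth inhibition is given as GI50. TGI denotes the concentration required for complete inhibition of growth.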
Experiments:
Test in all cases: NCI-60 cell line screen, 48 h
NCI-H522 lung = tested on: NCI-H522 lung
NCI-H23 lung = tested on: NCI-H23 lung
MDA-MB-231 breast = tested on: MDA-MB-231 breast
NCI/ADR-RES ovarian = tested on: NCI/ADR-RES ovarian
CAKI-1 renal = tested on: CAKI-1 renal
UACC-257 melanoma = tested on: UACC-257 melanoma
ACHN renal = tested on: ACHN renal
EKVX NSCLC = tested on: EKVX NSCLC
UO-31 renal = tested on: UO-31 renal
MCF7 breast = tested on: MCF7 breast
SK-MEL-2 melanoma = tested on: SK-MEL-2 melanoma
T-47D breast = tested on: T-47D breast
CCRF-CEM leukemia = tested on: CCRF-CEM leukemia
786-0 renal = tested on: 786-0 renal
UACC-62 melanoma = tested on: UACC-62 melanoma
A498 renal = tested on: A498 renal
SNB-75 CNS = tested on: SNB-75 CNS
SF-295 CNS = tested on: SF-295 CNS
KM12 colon = tested on: KM12 colon
MALME-3M melanoma = tested on: MALME-3M melanoma
HT29 colon = tested on: HT29 colon
COLO 205 colon = tested on: COLO 205 colon
HOP-62 NSCLC = tested on: HOP-62 NSCLC
BT-549 breast = tested on: BT-549 breast
M14 melanoma = tested on: M14 melanoma
K-562 leukemia = tested on: K-562 leukemia
PC-3 prostate = tested on: PC-3 prostate
SF-268 CNS = tested on: SF-268 CNS
NCI-H460 lung = tested on: NCI-H460 lung
SK-OV-3 ovarian = tested on: SK-OV-3 ovarian
OVCAR-4 ovarian = tested on: OVCAR-4 ovarian
SF-539 CNS = tested on: SF-539 CNS
SK-MEL-5 melanoma = tested on: SK-MEL-5 melanoma
HCC-2998 colon = tested on: HCC-2998 colon
NCI-H226 lung = tested on: NCI-H226 lung
DU-145 prostate = tested on: DU-145 prostate
SN12C renal = tested on: SN12C renal
U251 CNS = tested on: U251 CNS
SK-MEL-28 melanoma = tested on: SK-MEL-28 melanoma
MDA-MB-435 = tested on: MDA-MB-435
MOLT-4 leukemia = tested on: MOLT-4 leukemia
HCT-15 colon = tested on: HCT-15 colon
SW-620 colon = tested on: SW-620 colon
OVCAR-8 ovarian = tested on: OVCAR-8 ovarian
SNB-19 CNS = tested on: SNB-19 CNS
HCT-116 colon = tested on: HCT-116 colon

For `CN1CCC2(CC1)ONC1=NCCN12`, the GI50 (NCI-H522 lung) was 29.3 µM, the TGI (NCI-H522 lung) was > 100 µM and the GI50 (NCI-H23 lung) was 34.5 µM. For the same compound, the TGI (NCI-H23 lung) was > 100 µM, the GI50 (MDA-MB-231 breast) was 46 µM and the TGI (MDA-MB-231 breast) was > 100 µM. It also gave a GI50 (NCI/ADR-RES ovarian) of 19.6 µM, a TGI (NCI/ADR-RES ovarian) of 70.3 µM and a GI50 (CAKI-1 renal) of 30.6 µM. The TGI (CAKI-1 renal) was 90 µM, the GI50 (UACC-257 melanoma) was > 100 µM and the TGI (UACC-257 melanoma) was > 100 µM. The GI50 (ACHN renal) was 23.7 µM, the TGI (ACHN renal) was 74.5 µM and the GI50 (EKVX NSCLC) was 92.5 µM. For the same compound, the TGI (EKVX NSCLC) was > 100 µM, the GI50 (UO-31 renal) was 45.3 µM and the TGI (UO-31 renal) was > 100 µM. The GI50 (MCF7 breast) was 23 µM, the TGI (MCF7 breast) was 87.1 µM and the GI50 (SK-MEL-2 melanoma) was > 100 µM. For the same compound, the TGI (SK-MEL-2 melanoma) was > 100 µM, the GI50 (T-47D breast) was 99.8 µM and the TGI (T-47D breast) was > 100 µM. It also gave a GI50 (CCRF-CEM leukemia) of 13.4 µM, a TGI (CCRF-CEM leukemia) of 42.3 µM and a GI50 (786-0 renal) of 15.4 µM. The TGI (786-0 renal) was 53.8 µM, the GI50 (UACC-62 melanoma) was 31.2 µM and the TGI (UACC-62 melanoma) was > 100 µM. For the same compound, the GI50 (A498 renal) was 41.4 µM, the TGI (A498 renal) was > 100 µM and the GI50 (SNB-75 CNS) was 66.8 µM. For the same compound, the TGI (SNB-75 CNS) was > 100 µM, the GI50 (SF-295 CNS) was 44.5 µM and the TGI (SF-295 CNS) was > 100 µM. The GI50 (KM12 colon) was 26.6 µM, the TGI (KM12 colon) was > 100 µM and the GI50 (MALME-3M melanoma) was 20.1 µM. For the same compound, the TGI (MALME-3M melanoma) was 73.7 µM, the GI50 (HT29 colon) was 53.7 µM and the TGI (HT29 colon) was > 100 µM. The GI50 (COLO 205 colon) was 31.1 µM, the TGI (COLO 205 colon) was > 100 µM and the GI50 (HOP-62 NSCLC) was 52.9 µM. For the same compound, the TGI (HOP-62 NSCLC) was > 100 µM, the GI50 (BT-549 breast) was 53.1 µM and the TGI (BT-549 breast) was > 100 µM. For the same compound, the GI50 (M14 melanoma) was 47.9 µM, the TGI (M14 melanoma) was > 100 µM and the GI50 (K-562 leukemia) was 37.7 µM. The TGI (K-562 leukemia) was > 100 µM, the GI50 (PC-3 prostate) was 26 µM and the TGI (PC-3 prostate) was 66.5 µM. For the same compound, the GI50 (SF-268 CNS) was 37.2 µM, the TGI (SF-268 CNS) was > 100 µM and the GI50 (NCI-H460 lung) was 37.2 µM. The TGI (NCI-H460 lung) was > 100 µM, the GI50 (SK-OV-3 ovarian) was 42 µM and the TGI (SK-OV-3 ovarian) was > 100 µM. The GI50 (OVCAR-4 ovarian) was > 100 µM, the TGI (OVCAR-4 ovarian) was > 100 µM and the GI50 (SF-539 CNS) was 47.5 µM. For the same compound, the TGI (SF-539 CNS) was > 100 µM, the GI50 (SK-MEL-5 melanoma) was 59.8 µM and the TGI (SK-MEL-5 melanoma) was > 100 µM. It also gave a GI50 (HCC-2998 colon) of 15.8 µM, a TGI (HCC-2998 colon) of 43.8 µM and a GI50 (NCI-H226 lung) of 21.8 µM. The TGI (NCI-H226 lung) was 63.5 µM, the GI50 (DU-145 prostate) was 51.3 µM and the TGI (DU-145 prostate) was > 100 µM. For the same compound, the GI50 (SN12C renal) was 15.8 µM, the TGI (SN12C renal) was 40.2 µM and the GI50 (U251 CNS) was 29.4 µM. The TGI (U251 CNS) was > 100 µM, the GI50 (SK-MEL-28 melanoma) was > 100 µM and the TGI (SK-MEL-28 melanoma) was > 100 µM. For the same compound, the GI50 (MDA-MB-435) was 80.6 µM, the TGI (MDA-MB-435) was > 100 µM and the GI50 (MOLT-4 leukemia) was 23.6 µM. The TGI (MOLT-4 leukemia) was > 100 µM, the GI50 (HCT-15 colon) was 24.1 µM and the TGI (HCT-15 colon) was > 100 µM. For the same compound, the GI50 (SW-620 colon) was 51.8 µM, the TGI (SW-620 colon) was > 100 µM and the TGI (OVCAR-8 ovarian) was 12.9 µM. For the same compound, the GI50 (SNB-19 CNS) was > 100 µM, the TGI (SNB-19 CNS) was > 100 µM and the GI50 (HCT-116 colon) was 32.4 µM. The TGI (HCT-116 colon) was > 100 µM.

Source: PubChem BioAssay (NCI)
